Experimental data: patent US11753446B2, “Beta-hairpin peptidomimetics” (POLYPHOR AG, priority 2014, dated 2023)
Where two headings read alike, the source gives them in different places. Where a SMILES comes first, the peptide text is derived from it. Bridges are numbered along the chain shown (N, C = ends). [ ]: non-standard residue; d: D form. dDab = NCC[C@@H](N)C(=O)O; Orn = NCCC[C@H](N)C(=O)O; Dab = NCC[C@H](N)C(=O)O; Dap = NC[C@H](N)C(=O)O

Legend:
[1] = test system: human red blood cells (hRBC); assay: Hemolysis: hemolytic activity at 100 μg/mL, 1 h at 37° C.
In short: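 Peptides at 100 μg/mL incubated with washed 20% (v/v) human erythrocytes (~0.9×10^9 cells/mL) for 1 h at 37 °C with shaking. Released hemoglobin read at OD 540 nm in supernatant; 0% and 100% lysis from PBS/0.001% acetic acid and 2.5% Triton X-100.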

[2] = test system: Acinetobacter baumannii DSM 30008; type: cell-based
In short: (§1)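 Peptide MICs were determined by NCCLS broth microdilution in cation-adjusted Mueller-Hinton II broth. Inoculum was about 10^6 CFU/mL, matched to 0.5 McFarland, with peptides in two-fold serial dilutions. The broth contained Polysorbate 80 at 0.002% final concentration.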

[3] = test system: Klebsiella pneumoniae ATCC 13883; type: cell-based
In short: as §1

[4] = test system: Escherichia coli ATCC 25922; type: cell-based
In short: as §1

[5] = Mueller-Hinton II broth, 18-20 hours at 35° C.

Compound	Hemolysis at 100 μg/mL ([1]; red cells of human, 1 h, 100) [%]	Acinetobacter baumannii DSM 30008 MIC ([2]; DSM 30008) [µg/mL]	Klebsiella pneumoniae ATCC 13883 MIC ([3]; ATCC 13883) [µg/mL]	Escherichia coli ATCC 25922 MIC ([4]; ATCC 25922) [µg/mL]	Hemolysis at 100 μg/mL ([1]; 100 μg/mL, 20% hRBC, 1 h at 37° C.) [%]	Acinetobacter baumannii DSM 30008 MIC [2, 5] [µg/mL]	Klebsiella pneumoniae ATCC 13883 MIC [3, 5] [µg/mL]	Escherichia coli ATCC 25922 MIC [4, 5] [µg/mL]
CC(C)C[C@@H]1NC(=O)[C@H](CCCNC(=N)N)NC(=O)[C@@H](CCCNC(=N)N)NC(=O)[C@H](C(C)C)NC(=O)[C@@H]2CSSC[C@H](NC1=O)C(=O)N[C@@H](Cc1ccc(O)cc1)C(=O)N[C@@H](CC(N)=O)C(=O)N[C@@H](CCCN)C(=O)N[C@H](CCN)C(=O)N[C@@H](CCN)C(=O)N[C@@H](Cc1c[nH]c3ccccc13)C(=O)N[C@@H](CO)C(=O)N[C@@H](Cc1ccc(O)cc1)C(=O)N2 [Example 66, cyclo(-Leu-Cys-Tyr-Asn-Orn-^DDab-Dab-Trp-Ser-Tyr-Cys-Val-^DArg-Arg-)] (HELM PEPTIDE1{C.V.[dR].R.L.C.Y.N.[Orn].[NCC[C@@H](N[*:1])C(=O)[*:2]].[Dab].W.S.Y}$PEPTIDE1,PEPTIDE1,1:R3-6:R3|PEPTIDE1,PEPTIDE1,1:R1-14:R2$$$V2.0)	2	1.25	0.5	1	–	–	–	–
CC(C)C[C@@H]1NC(=O)[C@H](CCCCN)NC(=O)[C@@H](CCN)NC(=O)[C@H](C(C)C)NC(=O)[C@@H]2CSSC[C@H](NC1=O)C(=O)N[C@@H](Cc1ccc(O)cc1)C(=O)N[C@@H](CC(N)=O)C(=O)N[C@@H](CCCN)C(=O)N[C@H](CCN)C(=O)N[C@@H](CCN)C(=O)N[C@@H](Cc1c[nH]c3ccccc13)C(=O)N[C@@H](CO)C(=O)N[C@@H](Cc1ccc(O)cc1)C(=O)N2 [Example 67, cyclo(-Leu-Cys-Tyr-Asn-Orn-^DDab-Dab-Trp-Ser-Tyr-Cys-Val-^DDab-Lys-)] (HELM PEPTIDE1{C.V.[NCC[C@@H](N[*:1])C(=O)[*:2]].K.L.C.Y.N.[Orn].[NCC[C@@H](N[*:1])C(=O)[*:2]].[Dab].W.S.Y}$PEPTIDE1,PEPTIDE1,1:R3-6:R3|PEPTIDE1,PEPTIDE1,1:R1-14:R2$$$V2.0)	–	–	–	–	1	1.5	1	1
CC(C)C[C@@H]1NC(=O)[C@H](CN)NC(=O)[C@@H](CCN)NC(=O)[C@H](C(C)C)NC(=O)[C@@H]2CSSC[C@H](NC1=O)C(=O)N[C@@H](Cc1ccc(O)cc1)C(=O)N[C@@H](CC(N)=O)C(=O)N[C@@H](CCCN)C(=O)N[C@H](CCN)C(=O)N[C@@H](CCN)C(=O)N[C@@H](Cc1c[nH]c3ccccc13)C(=O)N[C@@H](CO)C(=O)N[C@@H](Cc1ccc(O)cc1)C(=O)N2 [Example 68, cyclo(-Leu-Cys-Tyr-Asn-Orn-^DDab-Dab-Trp-Ser-Tyr-Cys-Val-^DDab-Dap-)] (cyclo(CV[dDab][Dap]LCYN[Orn][dDab][Dab]WSY); disulfide 1-6)	1	1.25	0.5	0.75	–	–	–	–
CC(C)C[C@@H]1NC(=O)[C@@H]2CSSC[C@H](NC(=O)[C@H](C(C)C)NC(=O)[C@H](CCCNC(=N)N)NC(=O)[C@@H](CCN)NC1=O)C(=O)N[C@@H](Cc1ccc(O)cc1)C(=O)N[C@@H](CC(N)=O)C(=O)N[C@@H](CCCN)C(=O)N[C@H](CCN)C(=O)N[C@@H](CCN)C(=O)N[C@@H](Cc1c[nH]c3ccccc13)C(=O)N[C@@H](CO)C(=O)N[C@@H](Cc1ccc(O)cc1)C(=O)N2 [Example 69, cyclo(-Val-Cys-Tyr-Asn-Orn-^DDab-Dab-Trp-Ser-Tyr-Cys-Leu-^DDab-Arg-)] (HELM PEPTIDE1{C.L.[NCC[C@@H](N[*:1])C(=O)[*:2]].R.V.C.Y.N.[Orn].[NCC[C@@H](N[*:1])C(=O)[*:2]].[Dab].W.S.Y}$PEPTIDE1,PEPTIDE1,1:R3-6:R3|PEPTIDE1,PEPTIDE1,1:R1-14:R2$$$V2.0)	1	1	1	1	–	–	–	–
CC[C@H](C)[C@@H]1NC(=O)[C@H](CCCNC(=N)N)NC(=O)[C@@H](CCN)NC(=O)[C@H](C(C)C)NC(=O)[C@@H]2CSSC[C@H](NC1=O)C(=O)N[C@@H](Cc1ccc(O)cc1)C(=O)N[C@@H](CC(N)=O)C(=O)N[C@@H](CCCN)C(=O)N[C@H](CCN)C(=O)N[C@@H](CCN)C(=O)N[C@@H](Cc1c[nH]c3ccccc13)C(=O)N[C@@H](CO)C(=O)N[C@@H](Cc1ccc(O)cc1)C(=O)N2 [Example 70, cyclo(-Ile-Cys-Tyr-Asn-Orn-^DDab-Dab-Trp-Ser-Tyr-Cys-Val-^DDab-Arg-)] (HELM PEPTIDE1{C.V.[NCC[C@@H](N[*:1])C(=O)[*:2]].R.I.C.Y.N.[Orn].[NCC[C@@H](N[*:1])C(=O)[*:2]].[Dab].W.S.Y}$PEPTIDE1,PEPTIDE1,1:R3-6:R3|PEPTIDE1,PEPTIDE1,1:R1-14:R2$$$V2.0)	1	2.25	1	1	–	–	–	–
CC(C)C[C@@H]1NC(=O)[C@H](CCCNC(=N)N)NC(=O)[C@@H](CCN)NC(=O)[C@H](C)NC(=O)[C@@H]2CSSC[C@H](NC1=O)C(=O)N[C@@H](Cc1ccc(O)cc1)C(=O)N[C@@H](CC(N)=O)C(=O)N[C@@H](CCCN)C(=O)N[C@H](CCN)C(=O)N[C@@H](CCN)C(=O)N[C@@H](Cc1c[nH]c3ccccc13)C(=O)N[C@@H](CO)C(=O)N[C@@H](Cc1ccc(O)cc1)C(=O)N2 [Example 71, cyclo(-Leu-Cys-Tyr-Asn-Orn-^DDab-Dab-Trp-Ser-Tyr-Cys-Ala-^DDab-Arg-)] (HELM PEPTIDE1{A.[NCC[C@@H](N[*:1])C(=O)[*:2]].R.L.C.Y.N.[Orn].[NCC[C@@H](N[*:1])C(=O)[*:2]].[Dab].W.S.Y.C}$PEPTIDE1,PEPTIDE1,5:R3-14:R3|PEPTIDE1,PEPTIDE1,1:R1-14:R2$$$V2.0)	1	1.5	1	1.5	–	–	–	–
CC(C)C[C@@H]1NC(=O)[C@H](CCCNC(=N)N)NC(=O)[C@@H](CCN)NC(=O)[C@H](C(C)C)NC(=O)[C@@H]2CSSC[C@H](NC1=O)C(=O)N[C@@H](Cc1ccc(O)cc1)C(=O)N[C@@H](CN)C(=O)N[C@@H](CCCN)C(=O)N[C@H](CCN)C(=O)N[C@@H](CCN)C(=O)N[C@@H](Cc1c[nH]c3ccccc13)C(=O)N[C@@H](CO)C(=O)N[C@@H](Cc1ccc(O)cc1)C(=O)N2 [Example 72, cyclo(-Leu-Cys-Tyr-Dap-Orn-^DDab-Dab-Trp-Ser-Tyr-Cys-Val-^DDab-Arg-)] (cyclo(CV[dDab]RLCY[Dap][Orn][dDab][Dab]WSY); disulfide 1-6)	3	0.625	0.5	0.75	–	–	–	–
CC(C)C[C@@H]1NC(=O)[C@H](CCCNC(=N)N)NC(=O)[C@@H](C)NC(=O)[C@H](C(C)C)NC(=O)[C@@H]2CSSC[C@H](NC1=O)C(=O)N[C@@H](Cc1ccc(O)cc1)C(=O)N[C@@H](CCN)C(=O)N[C@@H](CCCN)C(=O)N[C@H](CCN)C(=O)N[C@@H](CCN)C(=O)N[C@@H](Cc1c[nH]c3ccccc13)C(=O)N[C@@H](CC(N)=O)C(=O)N[C@@H](Cc1ccc(O)cc1)C(=O)N2 [Example 73, cyclo(-Leu-Cys-Tyr-Dab-Orn-^DDab-Dab-Trp-Asn-Tyr-Cys-Val-^DAla-Arg-)] (HELM PEPTIDE1{C.V.[dA].R.L.C.Y.[Dab].[Orn].[NCC[C@@H](N[*:1])C(=O)[*:2]].[Dab].W.N.Y}$PEPTIDE1,PEPTIDE1,1:R3-6:R3|PEPTIDE1,PEPTIDE1,1:R1-14:R2$$$V2.0)	1	1.5	1	0.75	–	–	–	–
